Experimental data taken from patent EP0158265A2, “Benzamide and anilide derivatives” (BEECHAM GROUP PLC, priority 1984, dated 1985).

Test system: von Bezold-Jarisch reflex evoked by 5HT
Experiment: Antagonism of the von Bezold-Jarisch reflex evoked by 5HT in the anaesthetised rat
Type: in vivo
Details: anaesthetised male rat; compound given intravenously; concentration reducing the 5HT-evoked heart rate response (5-HT usually 6µg/kg i.v.) to 50% of control
Protocol: Antagonism of the von Bezold-Jarisch reflex
The compounds were evaluated for antagonism of the von Bezold-Jarisch reflex evoked by 5HT in the anaesthetised rat according to the following method: • Male rats (Beecham Pharmaceuticals), 250-350g, were anaesthetised with urethane (1.25g/kg intraperitoneally) and blood pressure and heart rate recorded as described by Fozard J.R. et al., J. Cardiovasc. Pharmacol. 2, 229-245 (1980). A submaximal dose of 5-HT (usually 6µg/kg) was given repeatedly by the intravenous route and changes in heart rate quantified. Examples were given intravenously and the concentration required to reduce the 5HT-evoked response to 50% of the control response (ED50) was then determined.

Structure (SMILES) | ED50
CN1C2CCC1CC(NC(=O)c1cc(Cl)cc(Cl)c1)C2 (stereo not drawn) [(2), 3,5-dichloro-N-[3β-{8-methyl-8-azabicyclo(3.2.1)octyl}] benzamide] | 0.3 mg/kg i.v.
CN1C2CCC1CC(NC(=O)c1cc(Cl)cc(Cl)c1)C2 (stereo not drawn) [(5), 3,5-Dichloro-N-[3α-{8-methyl-8-azabicyclo(3.2.1)octyl}] benzamide] | 0.009 mg/kg i.v.
